The record followed here is ChEMBL document CHEMBL5212743, “Selectivity Literature for EUbOPEN Chemogenomics Library wave 3” (2023).

The target in assay [1] is T1, Muscarinic acetylcholine receptor M2 (Homo sapiens) (UniProt P08172).
T1 sequence (whole entry): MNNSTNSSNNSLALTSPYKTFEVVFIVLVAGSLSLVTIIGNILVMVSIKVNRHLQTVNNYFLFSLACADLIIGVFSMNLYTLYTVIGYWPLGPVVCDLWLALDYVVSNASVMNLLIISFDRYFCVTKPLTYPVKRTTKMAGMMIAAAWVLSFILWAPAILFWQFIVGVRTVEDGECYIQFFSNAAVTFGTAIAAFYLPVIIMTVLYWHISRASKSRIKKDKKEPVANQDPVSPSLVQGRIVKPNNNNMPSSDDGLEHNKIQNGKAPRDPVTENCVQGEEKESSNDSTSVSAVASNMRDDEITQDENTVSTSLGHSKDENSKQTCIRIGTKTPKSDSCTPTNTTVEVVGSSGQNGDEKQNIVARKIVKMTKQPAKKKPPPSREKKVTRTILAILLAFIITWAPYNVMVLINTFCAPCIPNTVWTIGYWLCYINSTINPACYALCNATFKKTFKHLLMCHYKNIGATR
The assay is described as follows: Selectivity interaction (Eurofins Panlabs Discovery Services Panel (enzymes and receptors)) EUB0000234b CHRM2. The note with it: at 10 µM.

Assay [2] addresses Muscarinic acetylcholine receptor M2 (Homo sapiens, UniProt P08172). The assay is described as follows: Selectivity interaction (GloSensor assay) EUB0000234b CHRM2.
Assay [3] deals with Adenosine receptor A2b (Homo sapiens) (UniProt P29275). The assay is described as follows: Selectivity interaction (Eurofins Panlabs Discovery Services Panel (enzymes and receptors)) EUB0000234b ADORA2B. The settings on record: at 10 µM.
Chain of Adenosine receptor A2b (Homo sapiens) (P29275 whole entry): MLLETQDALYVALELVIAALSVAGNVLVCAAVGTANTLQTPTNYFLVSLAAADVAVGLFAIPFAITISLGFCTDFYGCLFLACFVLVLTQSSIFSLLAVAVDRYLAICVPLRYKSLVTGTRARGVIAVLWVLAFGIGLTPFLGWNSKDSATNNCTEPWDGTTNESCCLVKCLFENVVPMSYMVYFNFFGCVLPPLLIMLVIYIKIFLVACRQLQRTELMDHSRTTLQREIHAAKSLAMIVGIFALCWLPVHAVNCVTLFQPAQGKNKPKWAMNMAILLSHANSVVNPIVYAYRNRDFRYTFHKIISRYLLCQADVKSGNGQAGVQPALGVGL
For assay [4], the target named is Adenosine receptor A2b (Homo sapiens, UniProt P29275). The assay is described as follows: Selectivity interaction (GloSensor assay) EUB0000234b ADORA2B.
Chain of Adenosine receptor A2b (P29275 whole entry): as above
For assay [5], the target named is T2, Histamine H3 receptor (Homo sapiens, UniProt Q9Y5N1). The experiment in a line: Selectivity interaction (Eurofins Panlabs Discovery Services Panel (enzymes and receptors)) EUB0000234b HRH3. The settings on record: at 10 µM.
T2 sequence (Q9Y5N1 whole entry): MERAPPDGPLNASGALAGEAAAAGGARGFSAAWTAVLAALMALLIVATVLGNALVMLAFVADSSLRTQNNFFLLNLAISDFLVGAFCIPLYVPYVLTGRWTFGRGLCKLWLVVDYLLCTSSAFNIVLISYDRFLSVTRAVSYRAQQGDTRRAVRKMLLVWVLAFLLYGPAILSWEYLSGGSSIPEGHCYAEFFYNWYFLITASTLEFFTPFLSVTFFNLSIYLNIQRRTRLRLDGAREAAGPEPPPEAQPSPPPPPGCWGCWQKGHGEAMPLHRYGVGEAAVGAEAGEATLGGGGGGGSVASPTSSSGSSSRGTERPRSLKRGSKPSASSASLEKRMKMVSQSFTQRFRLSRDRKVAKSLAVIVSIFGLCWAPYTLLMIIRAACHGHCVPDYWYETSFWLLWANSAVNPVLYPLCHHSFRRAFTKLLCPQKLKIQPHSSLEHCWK
For assay [6], the target named is T2, Histamine H3 receptor. The experiment in a line: Selectivity interaction (GloSensor assay) EUB0000234b HRH3.
Assay [7] addresses T3, Mu-type opioid receptor (Homo sapiens, UniProt P35372). The experiment in a line: Selectivity interaction (Eurofins Panlabs Discovery Services Panel (enzymes and receptors)) EUB0000234b OPRM1. The settings on record: at 10 µM.
The target of assay [8] is T3, Mu-type opioid receptor. The experiment in a line: Selectivity interaction (GloSensor assay) EUB0000234b OPRM1.
The target in assay [9] is Histone-lysine N-methyltransferase PRDM9 (Homo sapiens) (UniProt Q9NQV7). The experiment in a line: Selectivity interaction (Methyltransferase panel (DSF assay)) EUB0000234b PRDM9.
Chain of Histone-lysine N-methyltransferase PRDM9 (Homo sapiens) (Q9NQV7 whole entry): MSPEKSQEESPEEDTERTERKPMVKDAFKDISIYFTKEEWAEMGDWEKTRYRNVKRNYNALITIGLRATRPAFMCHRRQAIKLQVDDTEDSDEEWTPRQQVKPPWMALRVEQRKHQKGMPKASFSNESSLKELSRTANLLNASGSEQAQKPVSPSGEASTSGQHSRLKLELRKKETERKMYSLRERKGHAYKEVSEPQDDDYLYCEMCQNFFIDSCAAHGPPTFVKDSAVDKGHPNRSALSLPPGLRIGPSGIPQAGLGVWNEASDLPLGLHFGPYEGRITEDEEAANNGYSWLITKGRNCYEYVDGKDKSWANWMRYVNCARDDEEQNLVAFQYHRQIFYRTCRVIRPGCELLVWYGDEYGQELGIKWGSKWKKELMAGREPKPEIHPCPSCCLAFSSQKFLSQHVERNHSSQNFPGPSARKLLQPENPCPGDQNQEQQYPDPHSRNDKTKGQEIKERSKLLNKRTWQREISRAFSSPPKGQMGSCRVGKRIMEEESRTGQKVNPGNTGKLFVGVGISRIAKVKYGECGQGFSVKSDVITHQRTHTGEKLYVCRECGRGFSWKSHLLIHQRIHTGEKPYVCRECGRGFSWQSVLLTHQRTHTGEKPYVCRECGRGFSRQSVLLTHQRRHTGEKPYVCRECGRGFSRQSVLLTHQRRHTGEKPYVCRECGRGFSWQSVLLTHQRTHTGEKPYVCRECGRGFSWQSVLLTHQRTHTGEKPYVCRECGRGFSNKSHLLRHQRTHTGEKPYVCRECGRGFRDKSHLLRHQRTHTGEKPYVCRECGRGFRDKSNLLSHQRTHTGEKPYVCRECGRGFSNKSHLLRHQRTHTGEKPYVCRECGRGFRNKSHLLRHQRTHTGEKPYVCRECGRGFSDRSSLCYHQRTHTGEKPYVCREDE
The target is the same in assay [10]. The assay is described as follows: Selectivity interaction (NanoLuciferase thermal shift assay (NALTSA, in HEK293 cells)) EUB0000234b PRDM9. Format: cell-based.
Assay [11] addresses PR domain-containing protein 11 (Homo sapiens) (UniProt Q9NQV5). The assay is described as follows: Selectivity interaction (Methyltransferase panel (DSF assay)) EUB0000234b PRDM11. For orientation: Differential scanning fluorimetry follows unfolding on heating by fluorescence.
The target of assay [12] is PR domain zinc finger protein 12 (Homo sapiens) (UniProt Q9H4Q4). The experiment in a line: Selectivity interaction (Methyltransferase panel (DSF assay)) EUB0000234b PRDM12.
Chain of PR domain zinc finger protein 12 (Homo sapiens) (Q9H4Q4 whole entry, the tested form may be a part): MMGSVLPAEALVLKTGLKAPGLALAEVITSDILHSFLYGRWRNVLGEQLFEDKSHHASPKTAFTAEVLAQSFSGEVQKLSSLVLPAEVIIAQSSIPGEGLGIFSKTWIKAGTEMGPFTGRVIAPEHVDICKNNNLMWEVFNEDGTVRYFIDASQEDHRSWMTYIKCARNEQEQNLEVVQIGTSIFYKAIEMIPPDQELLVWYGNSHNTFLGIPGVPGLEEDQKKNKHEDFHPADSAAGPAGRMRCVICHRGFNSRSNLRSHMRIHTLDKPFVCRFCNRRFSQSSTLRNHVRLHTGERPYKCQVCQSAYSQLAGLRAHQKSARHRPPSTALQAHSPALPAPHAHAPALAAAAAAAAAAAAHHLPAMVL
Assay [13] concerns the target PR domain zinc finger protein 13 (Homo sapiens) (UniProt Q9H4Q3). The experiment in a line: Selectivity interaction (Methyltransferase panel (DSF assay)) EUB0000234b PRDM13.
Assay [14] concerns the target PR domain zinc finger protein 14 (Homo sapiens) (UniProt Q9GZV8). The experiment in a line: Selectivity interaction (Methyltransferase panel (DSF assay)) EUB0000234b PRDM14.
Assay [15] deals with Histone-lysine N-methyltransferase PRDM7 (Homo sapiens) (UniProt Q9NQW5). The experiment in a line: Selectivity interaction (Methyltransferase panel (DSF assay)) EUB0000234b PRDM7.
For assay [16], the target named is PR domain zinc finger protein 8 (Homo sapiens) (UniProt Q9NQV8). The assay is described as follows: Selectivity interaction (Methyltransferase panel (DSF assay)) EUB0000234b PRDM8.
Chain of PR domain zinc finger protein 8 (Homo sapiens) (Q9NQV8 whole entry, the tested form may be a part): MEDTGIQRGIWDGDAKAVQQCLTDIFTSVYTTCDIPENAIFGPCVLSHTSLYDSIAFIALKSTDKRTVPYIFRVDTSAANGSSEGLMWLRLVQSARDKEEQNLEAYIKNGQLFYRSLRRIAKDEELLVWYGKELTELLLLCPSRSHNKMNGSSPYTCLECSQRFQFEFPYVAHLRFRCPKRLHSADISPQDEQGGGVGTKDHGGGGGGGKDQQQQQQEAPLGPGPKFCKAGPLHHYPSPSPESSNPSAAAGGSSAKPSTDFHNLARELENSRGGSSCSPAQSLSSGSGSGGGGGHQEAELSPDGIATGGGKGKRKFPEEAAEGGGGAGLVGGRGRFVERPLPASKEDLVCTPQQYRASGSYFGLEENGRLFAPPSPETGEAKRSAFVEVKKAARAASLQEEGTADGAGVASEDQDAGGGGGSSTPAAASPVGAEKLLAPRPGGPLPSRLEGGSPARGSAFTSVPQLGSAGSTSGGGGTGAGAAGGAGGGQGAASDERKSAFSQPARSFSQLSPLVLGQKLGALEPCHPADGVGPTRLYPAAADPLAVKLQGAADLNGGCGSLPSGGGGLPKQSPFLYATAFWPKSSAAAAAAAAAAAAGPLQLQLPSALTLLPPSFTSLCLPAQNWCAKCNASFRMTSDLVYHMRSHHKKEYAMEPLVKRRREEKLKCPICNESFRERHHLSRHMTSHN
Assay [17] deals with Histone-lysine N-methyltransferase MECOM (Homo sapiens) (UniProt Q03112). The assay is described as follows: Selectivity interaction (Methyltransferase panel (DSF assay)) EUB0000234b MECOM.
Assay [18] has as its target PR domain zinc finger protein 1 (Homo sapiens) (UniProt O75626). The experiment in a line: Selectivity interaction (Methyltransferase panel (DSF assay)) EUB0000234b PRDM1.
Assay [19] deals with PR domain zinc finger protein 10 (Homo sapiens) (UniProt Q9NQV6). The experiment in a line: Selectivity interaction (Methyltransferase panel (DSF assay)) EUB0000234b PRDM10.
Chain of PR domain zinc finger protein 10 (Homo sapiens) (Q9NQV6 whole entry, the tested form may be a part): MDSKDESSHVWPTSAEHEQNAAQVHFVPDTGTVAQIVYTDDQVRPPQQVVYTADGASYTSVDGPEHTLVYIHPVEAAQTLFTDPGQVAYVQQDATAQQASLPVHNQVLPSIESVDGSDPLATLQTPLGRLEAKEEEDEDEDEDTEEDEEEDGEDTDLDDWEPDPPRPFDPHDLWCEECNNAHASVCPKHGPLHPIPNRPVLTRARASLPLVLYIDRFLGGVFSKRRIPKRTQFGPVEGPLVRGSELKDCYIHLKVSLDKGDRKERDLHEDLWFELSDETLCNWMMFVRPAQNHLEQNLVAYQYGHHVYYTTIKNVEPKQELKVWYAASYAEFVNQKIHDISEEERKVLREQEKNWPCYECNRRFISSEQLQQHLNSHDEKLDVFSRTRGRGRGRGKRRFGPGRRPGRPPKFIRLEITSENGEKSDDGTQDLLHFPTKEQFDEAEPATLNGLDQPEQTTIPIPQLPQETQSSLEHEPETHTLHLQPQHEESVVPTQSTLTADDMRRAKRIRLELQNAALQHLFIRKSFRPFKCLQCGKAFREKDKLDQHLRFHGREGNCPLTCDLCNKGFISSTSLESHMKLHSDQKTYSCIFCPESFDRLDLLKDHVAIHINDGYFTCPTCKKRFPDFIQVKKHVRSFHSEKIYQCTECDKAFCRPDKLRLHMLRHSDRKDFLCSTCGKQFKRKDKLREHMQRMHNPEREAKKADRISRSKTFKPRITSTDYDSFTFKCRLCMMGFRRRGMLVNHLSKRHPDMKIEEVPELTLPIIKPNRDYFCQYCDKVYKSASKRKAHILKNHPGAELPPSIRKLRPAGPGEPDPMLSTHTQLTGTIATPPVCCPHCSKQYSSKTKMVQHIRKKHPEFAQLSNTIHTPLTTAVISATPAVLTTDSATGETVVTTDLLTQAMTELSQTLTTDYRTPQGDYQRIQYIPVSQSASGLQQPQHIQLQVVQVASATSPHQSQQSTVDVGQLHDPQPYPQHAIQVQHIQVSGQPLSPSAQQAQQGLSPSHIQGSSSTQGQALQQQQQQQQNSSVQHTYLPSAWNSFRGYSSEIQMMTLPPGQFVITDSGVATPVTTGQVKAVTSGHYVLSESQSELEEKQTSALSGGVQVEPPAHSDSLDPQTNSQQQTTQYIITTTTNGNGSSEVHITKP
Assay [20] has as its target Histone-lysine N-methyltransferase PRDM16 (Homo sapiens) (UniProt Q9HAZ2). The assay is described as follows: Selectivity interaction (Methyltransferase panel (DSF assay)) EUB0000234b PRDM16.
For assay [21], the target named is PR domain zinc finger protein 2 (Homo sapiens) (UniProt Q13029). The assay is described as follows: Selectivity interaction (Methyltransferase panel (DSF assay)) EUB0000234b PRDM2.
The target in assay [22] is Putative histone-lysine N-methyltransferase PRDM6 (Homo sapiens) (UniProt Q9NQX0). The assay is described as follows: Selectivity interaction (Methyltransferase panel (DSF assay)) EUB0000234b PRDM6.
Chain of Putative histone-lysine N-methyltransferase PRDM6 (Homo sapiens) (Q9NQX0 whole entry): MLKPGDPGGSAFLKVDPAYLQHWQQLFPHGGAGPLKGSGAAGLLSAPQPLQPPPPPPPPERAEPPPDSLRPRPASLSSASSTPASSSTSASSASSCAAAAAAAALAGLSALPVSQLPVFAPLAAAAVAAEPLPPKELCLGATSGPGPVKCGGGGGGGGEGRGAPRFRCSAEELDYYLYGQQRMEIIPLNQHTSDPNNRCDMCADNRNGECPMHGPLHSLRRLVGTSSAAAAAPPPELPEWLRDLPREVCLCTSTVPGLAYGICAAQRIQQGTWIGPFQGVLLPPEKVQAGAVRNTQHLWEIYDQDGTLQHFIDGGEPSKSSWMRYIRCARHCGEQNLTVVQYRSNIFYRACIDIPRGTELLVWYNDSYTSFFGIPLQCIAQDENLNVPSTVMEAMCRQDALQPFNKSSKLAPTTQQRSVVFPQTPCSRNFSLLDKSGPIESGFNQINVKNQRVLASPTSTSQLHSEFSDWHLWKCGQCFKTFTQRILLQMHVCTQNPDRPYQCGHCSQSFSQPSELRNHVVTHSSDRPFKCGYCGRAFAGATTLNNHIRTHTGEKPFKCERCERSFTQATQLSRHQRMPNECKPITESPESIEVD

Bounds are passed on as bounds.

T3 sequence (P35372 whole entry): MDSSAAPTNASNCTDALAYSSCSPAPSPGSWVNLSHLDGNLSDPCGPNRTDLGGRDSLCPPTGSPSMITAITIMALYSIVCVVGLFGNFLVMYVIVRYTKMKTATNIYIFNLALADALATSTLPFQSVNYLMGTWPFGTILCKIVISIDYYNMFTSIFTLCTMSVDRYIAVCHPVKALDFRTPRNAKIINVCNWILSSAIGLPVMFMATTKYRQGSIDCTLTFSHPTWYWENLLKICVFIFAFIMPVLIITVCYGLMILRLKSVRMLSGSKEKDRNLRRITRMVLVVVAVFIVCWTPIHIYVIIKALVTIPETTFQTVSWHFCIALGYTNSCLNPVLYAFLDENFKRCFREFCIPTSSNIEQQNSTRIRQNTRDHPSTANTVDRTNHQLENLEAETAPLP

As a reminder, the EC50 is the midpoint of the concentration-response curve. With `COc1cc(OC)cc(-c2noc(N3CCN(C)C4(CCN(c5ccnc(C)c5)CC4)C3)n2)c1`, the % of inhibition in [1], in [3], in assay [5] and in [7] was above 50% each time. Besides, the EC50 in [2], in assay [4], in assay [6] and in [8] was above 10 µM in each case. Moreover, the dTm in assay [9] was 5.2 K; in assay [10], 2 K; in assay [11], below 2 K; in assay [12], below 2 K; in [13], below 2 K; in [14], below 2 K. Moreover, the dTm in [15] was 5 K; in [16] it was below 2 K; in assay [17], below 2 K; in assay [18], below 2 K; in assay [19] it was below 2 K; in assay [20], below 2 K. The dTm in assay [21] and in assay [22] was below 2 K each time.
